Source: paper PMC8776995 (Frontiers in Chemistry, 2022)
Several values for one entry are separate records, joined by “and”; a condition that tells them apart may be missing. Equal values may be shown once.

Columns and labels:
[1] = tested on: EGFR phosphorylation (Tyr1068) in PC-9 cells; experiment: Western blot, p-EGFR/EGFR in PC-9; conditions: PC-9, 10 uM
Method: (§1) We also performed western blot analysis to evaluate the impact of e4 and e12 on EGFR signaling in PC-9 and H460 cells.
(§2) H460 cells were seeded in six-well plates with serum-free medium overnight, and then treated complete medium containing 0.1% DMSO, various concentrations (0.1, 1 and 10 μM) of either compound e4 or e12 for 2 h, respectively. […] Then the H460 cells were treated with complete medium containing EGF (10 ng/ml) for 5 min. Then the cells were harvested and washed with PBS, centrifuged, resuspended in 100–200 μl of RIPA lysis buffer containing Protease and Phosphatase Inhibitor Cocktail (1X), and then centrifuged for 5 min at 12,000 rpm at 4°C. The supernatant was used for protein analysis. […] Then the membrane was washed 5 min (X3) and incubated at 1:3,000 dilution of anti-rabbit secondary antibodies or 1:1,000 dilution of anti-mouse secondary antibodies for 1 h at RT. After washing with TBST 5 min (X3), protein bands were developed by chemiluminescence. The protein levels were quantified by the gray values of the bands in the resulting images by ImageJ, and the control group was used as the standard. […] The PC-9 cells were harvested and analyzed as above.

wild-type EGFR = wild-type EGFR (Homo sapiens, UniProt P00533); experiment: EGFR kinase assay (ELISA); conditions: for A450: raw ELISA absorbance
wild-type EGFR, sequence (P00533 25-1210): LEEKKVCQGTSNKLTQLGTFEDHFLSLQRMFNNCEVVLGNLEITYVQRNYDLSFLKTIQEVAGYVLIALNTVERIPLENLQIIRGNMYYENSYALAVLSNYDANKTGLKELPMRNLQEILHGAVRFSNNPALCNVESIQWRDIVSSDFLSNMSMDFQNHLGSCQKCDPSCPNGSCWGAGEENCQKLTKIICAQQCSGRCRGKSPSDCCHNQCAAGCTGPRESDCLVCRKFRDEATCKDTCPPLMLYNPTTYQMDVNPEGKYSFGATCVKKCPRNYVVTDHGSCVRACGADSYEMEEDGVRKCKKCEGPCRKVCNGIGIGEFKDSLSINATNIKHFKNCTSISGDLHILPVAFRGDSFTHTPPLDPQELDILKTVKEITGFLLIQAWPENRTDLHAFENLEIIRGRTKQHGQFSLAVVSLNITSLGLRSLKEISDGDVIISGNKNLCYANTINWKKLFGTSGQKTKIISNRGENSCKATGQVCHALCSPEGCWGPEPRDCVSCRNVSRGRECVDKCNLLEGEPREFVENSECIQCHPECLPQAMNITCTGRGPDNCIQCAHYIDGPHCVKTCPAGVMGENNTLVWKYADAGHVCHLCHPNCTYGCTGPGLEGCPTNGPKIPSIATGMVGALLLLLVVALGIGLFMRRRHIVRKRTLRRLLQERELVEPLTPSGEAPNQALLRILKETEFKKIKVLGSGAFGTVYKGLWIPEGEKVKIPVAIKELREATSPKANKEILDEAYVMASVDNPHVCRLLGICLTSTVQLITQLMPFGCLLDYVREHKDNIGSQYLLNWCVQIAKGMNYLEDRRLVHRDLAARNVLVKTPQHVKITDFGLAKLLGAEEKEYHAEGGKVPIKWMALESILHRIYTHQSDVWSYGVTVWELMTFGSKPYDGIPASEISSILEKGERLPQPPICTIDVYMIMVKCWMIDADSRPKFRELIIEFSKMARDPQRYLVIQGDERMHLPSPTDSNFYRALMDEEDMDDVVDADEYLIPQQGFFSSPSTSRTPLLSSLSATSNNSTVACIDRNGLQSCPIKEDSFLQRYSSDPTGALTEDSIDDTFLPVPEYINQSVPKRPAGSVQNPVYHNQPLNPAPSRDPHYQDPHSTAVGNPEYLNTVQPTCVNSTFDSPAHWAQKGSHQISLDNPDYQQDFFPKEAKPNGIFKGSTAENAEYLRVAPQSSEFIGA
Method: The kinase enzyme of EGFR was purchased from Carna Bioscience (Kobe, Japan). A total of 10 ng/ml anti phosphotyrosine (PY713) antibody (abcam, Cambridge Science Park, United Kingdom) was precoated in 96-well ELISA plates. […] Then, a total of 3 μmol/L ATP was added and the reaction was continued for 2 h. […] After incubation, the wells were washed with PBS and then incubated with horseradish peroxidase (HRP)-conjugated streptavidin. The wells were visualized using 3,3′,5,5′-tetramethylbenzidine (TMB), and chromogenic reaction was ended with 2 mol/L H2SO4, the absorbance was read with a multimode plate reader (PerkinElmer, United States) at 450 nm.

A549 cells = experiment: CCK-8 antiproliferation assay, A549; conditions: for Inhibitory efficacy: A549 cells
H460 cells = experiment: CCK-8 antiproliferation assay, H460
H1975 cells = experiment: CCK-8 antiproliferation assay, H1975
Method: (§3) The compounds were dissolved in DMSO to make a 20 μM stock solution and diluted to the concentration of working solutions with complete growth medium before administration.
(§4) Cells were seeded in 96-well plates: 3,000–5,000 cells/well in 100 ul. One day after seeding, the test compounds at concentration between 1.0 and 16.0 μ M or 0.1% DMSO (as control) were added to cells in triplicate. 48 h later, CCK-8 was added and incubated the plate for 1–4 h in the incubator. The absorbance at 450 nm were measured using a microplate reader (Bio-Tek).

PC-9 xenograft = experiment: In vivo antitumor activity, PC-9 xenograft in NSG mice; set-up: species or system mouse; conditions: Day19, individual animals
Method: The mouse body mass was recorded as well.

[2] = tested on: AKT phosphorylation (S473) in H460 cells; experiment: Western blot, p-AKT/AKT in H460; conditions: H460, 10 uM
Method: as §1, §2

[3] = tested on: AKT phosphorylation (S473) in PC-9 cells; experiment: Western blot, p-AKT/AKT in PC-9; conditions: PC-9, 10 uM
Method: as §1, §2

[4] = tested on: EGFR phosphorylation (Tyr1068) in H460 cells; experiment: Western blot, p-EGFR/EGFR in H460; conditions: H460, 10 uM
Method: as §1, §2

PC-9 cells = experiment: CCK-8 antiproliferation assay, PC-9; conditions: Homo sapiens, PC-9, 48 h, read-out: IC50 (μM) PC-9
Method: as §3, §4

`COCCOc1cc2ncnc(Nc3cccc(-c4cn(-c5ccccc5)nn4)c3)c2cc1OCCOC` [e15, [6,7-Bis-(2-methoxy-ethoxy)-quinazolin-4-yl]-[3-(1-phenyl-1H-[1,2,3]triazol-4-yl)-phenyl]-amine] was tested, and the p-EGFR/EGFR ([1]; band density ratio) was 0.2353, the “p-EGFR/EGFR relative to DMSO” value ([1]; ratio normalised to DMSO = 1) was 0.2103 and the IC50 (wild-type EGFR; IC50 (μM) EGFR, ELISA, 3 μmol/L ATP) was 0.09 µM. The inhibition at 100 fM (wild-type EGFR; concentration 0.0001 nM (reference for normalisation), one value per replicate column) was 0%, the Inhibition (wild-type EGFR; concentration 0.03 nM, one value per replicate column, 3e-05 µM) was 3.563 and 0.1327 and the Inhibition (wild-type EGFR; concentration 0.3 nM, one value per replicate column, 0.0003 µM) was 14.0143 and 0.8626. The inhibition at 0.003 µM (wild-type EGFR; concentration 3 nM, one value per replicate column) was 33.2%, the Inhibition (wild-type EGFR; concentration 3 nM, one value per replicate column, 0.003 µM) was 30.0597 and the inhibition at 0.03 µM (wild-type EGFR; concentration 30 nM, one value per replicate column) was 44.4%. For the same molecule, the Inhibition (wild-type EGFR; concentration 30 nM, one value per replicate column, 0.03 µM) was 47.6443, the inhibition at 0.3 µM (wild-type EGFR; concentration 300 nM, one value per replicate column) was 59.3% and the Inhibition (wild-type EGFR; concentration 300 nM, one value per replicate column, 0.3 µM) was 58.7259. The inhibition at 3 µM (wild-type EGFR; concentration 3000 nM, one value per replicate column) was 68.1%, the Inhibition (wild-type EGFR; concentration 3000 nM, one value per replicate column, 3 µM) was 67.4851 and the inhibition at 30 µM (wild-type EGFR; concentration 30000 nM, one value per replicate column) was 86.9%. The Inhibition (wild-type EGFR; concentration 30000 nM, one value per replicate column, 30 µM) was 93.1652, the A450 (wild-type EGFR; concentration 0.0001 nM) was 1.566 and 1.805 and the A450 (wild-type EGFR; concentration 0.03 nM) was 1.521 and 1.803. For the same molecule, the A450 (wild-type EGFR; concentration 0.3 nM) was 1.389 and 1.792, the A450 (wild-type EGFR; concentration 3 nM) was 1.147 and 1.352 and the A450 (wild-type EGFR; concentration 30 nM) was 1.005 and 1.087. For the same molecule, the A450 (wild-type EGFR; concentration 300 nM) was 0.817 and 0.92, the A450 (wild-type EGFR; concentration 3000 nM) was 0.706 and 0.788 and the A450 (wild-type EGFR; concentration 30000 nM) was 0.469 and 0.401. For the same molecule, the Inhibitory efficacy (A549 cells; 1uM, given as fraction, Repeat 1-3) was 0.1367 and 0.1269, the Inhibitory efficacy (A549 cells; 2uM, given as fraction, Repeat 1-3) was 0.193 and 0.2629 and the Inhibitory efficacy (A549 cells; 4uM, given as fraction, Repeat 1-3) was 0.2103 and 0.2621. The Inhibitory efficacy (A549 cells; 8uM, given as fraction, Repeat 1-3) was 0.2141 and 0.1622, the Inhibitory efficacy (A549 cells; 16uM, given as fraction, Repeat 1-3) was 0.2043 and 0.1059 and the IC50 (A549 cells; Homo sapiens, A549, 48 h, read-out: IC50 (μM) A549, CCK-8, 48 h, average ± SD of three independent experiments) was > 100 µM. It also gave an inhibition at 1 µM (A549 cells; Homo sapiens, A549, read-out: Inhibitory efficacy, A549 cells, 1uM, given as fraction, Repeat 1-3) of 11.7%, an inhibition at 2 µM (A549 cells; Homo sapiens, A549, read-out: Inhibitory efficacy, A549 cells, 2uM, given as fraction, Repeat 1-3) of 15.2% and an inhibition at 4 µM (A549 cells; Homo sapiens, A549, read-out: Inhibitory efficacy, A549 cells, 4uM, given as fraction, Repeat 1-3) of 18.5%. For the same molecule, the inhibition at 8 µM (A549 cells; Homo sapiens, A549, read-out: Inhibitory efficacy, A549 cells, 8uM, given as fraction, Repeat 1-3) was 14.6%, the inhibition at 16 µM (A549 cells; Homo sapiens, A549, read-out: Inhibitory efficacy, A549 cells, 16uM, given as fraction, Repeat 1-3) was 11.9% and the Inhibitory efficacy (H460 cells; H460 cells, 2uM, given as fraction, Repeat 1-3) was 0.04615 and 0.05031. For the same molecule, the IC50 (H460 cells; Homo sapiens, NCI-H460, 48 h, read-out: IC50 (μM) H460, CCK-8, 48 h, average ± SD of three independent experiments) was > 100 µM, the inhibition at 2 µM (H460 cells; Homo sapiens, NCI-H460, read-out: Inhibitory efficacy, H460 cells, 2uM, given as fraction, Repeat 1-3) was 5.86% and the Inhibitory efficacy (H1975 cells; H1975 cells, 8uM, given as fraction, Repeat 1-3) was 0.07522 and 0.1057. The IC50 (H1975 cells; Homo sapiens, NCI-H1975, 48 h, read-out: IC50 (μM) H1975, CCK-8, 48 h, average ± SD of three independent experiments) was > 100 µM, the inhibition at 8 µM (H1975 cells; Homo sapiens, NCI-H1975, read-out: Inhibitory efficacy, H1975 cells, 8uM, given as fraction, Repeat 1-3) was 6.27% and the Tumor weight (PC-9 xenograft) was 0.04 g and 0.03 g and 0.02 g and 0.01 g. The p-AKT/AKT ([2]; band density ratio) was 0.08408, the “p-AKT/AKT relative to DMSO” value ([2]; ratio normalised to DMSO) was 0.08452 and the p-AKT/AKT ([3]; band density ratio) was 0.03365. For the same molecule, the “p-AKT/AKT relative to DMSO” value ([3]; ratio normalised to DMSO = 1) was 0.03231, the p-EGFR/EGFR ([4]; band density ratio) was 0.02304 and the “p-EGFR/EGFR relative to DMSO” value ([4]; ratio normalised to DMSO) was 0.02768. For the same molecule, the IC50 (PC-9 cells) was > 100 µM.
